Test results as given in US20080125424A1, “Derivatives of urea and related diamines, methods for their manufacture, and uses therefor” (priority 2006, published 2008).

What follows are compounds tested against T1, Human Ca2+ receptor (Homo sapiens, UniProt P41180) (assay: Luciferase reporter assay in CHO cells (ET8-5-5) transfected with human Ca2+ receptor). Details: CHO ET8-5-5 cells, 5 h incubation with test compound.
T1 construct: expressed in transfected cells
T1 sequence (P41180 20-1078): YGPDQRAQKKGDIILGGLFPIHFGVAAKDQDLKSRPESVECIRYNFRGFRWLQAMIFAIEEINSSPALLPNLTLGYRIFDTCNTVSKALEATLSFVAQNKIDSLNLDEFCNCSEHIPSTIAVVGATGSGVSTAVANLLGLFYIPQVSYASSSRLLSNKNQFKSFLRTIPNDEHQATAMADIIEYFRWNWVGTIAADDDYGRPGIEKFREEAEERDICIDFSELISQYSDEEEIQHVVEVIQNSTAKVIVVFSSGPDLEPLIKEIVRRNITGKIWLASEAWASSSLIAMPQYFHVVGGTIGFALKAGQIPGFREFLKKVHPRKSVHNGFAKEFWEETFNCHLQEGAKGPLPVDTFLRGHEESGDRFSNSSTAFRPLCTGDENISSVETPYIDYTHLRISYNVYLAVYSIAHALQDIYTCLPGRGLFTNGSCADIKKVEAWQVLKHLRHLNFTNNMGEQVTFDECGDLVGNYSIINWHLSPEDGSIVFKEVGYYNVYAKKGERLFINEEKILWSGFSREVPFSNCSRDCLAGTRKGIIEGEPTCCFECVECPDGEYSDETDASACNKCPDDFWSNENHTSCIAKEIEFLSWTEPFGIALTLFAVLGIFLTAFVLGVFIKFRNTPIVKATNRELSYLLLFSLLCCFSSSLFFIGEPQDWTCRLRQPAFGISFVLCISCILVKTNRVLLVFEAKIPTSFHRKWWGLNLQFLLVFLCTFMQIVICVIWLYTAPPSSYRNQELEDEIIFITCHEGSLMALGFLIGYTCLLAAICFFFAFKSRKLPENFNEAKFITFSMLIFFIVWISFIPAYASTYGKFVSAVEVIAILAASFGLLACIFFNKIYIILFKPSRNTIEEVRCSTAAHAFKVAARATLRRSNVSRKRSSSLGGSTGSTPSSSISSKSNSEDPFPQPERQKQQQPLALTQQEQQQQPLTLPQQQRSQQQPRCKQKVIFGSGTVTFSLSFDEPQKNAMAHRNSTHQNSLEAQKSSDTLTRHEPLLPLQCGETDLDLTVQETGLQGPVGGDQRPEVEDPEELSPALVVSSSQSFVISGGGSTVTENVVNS
Assay type: cell-based
Method: The activities of the compounds of the present invention on calcium receptors were measured in accordance with the method described hereinbelow.
Human Ca^2+ receptor cDNA was subcloned into the mammalian expression vector PECE as described in Ellis, L et al. (1986) Cell vol. 45, 721-732. The luciferase reporter was subcloned into the mammalian expression vector pGL3basic (Promega). Resistance to neomycin (pSV2-neo) and resistance to puromycin (pSG5-puro) were used as selection markers. All these plasmids were simultaneously transfected into CHO cells by calcium phosphate precipitation. Transfected cells were grown in F12 medium containing 7.5% foetal bovine serum, 100 U/ml penicillin and 100 μg/ml streptomycin (as 1% Pen-Strep, BioWithaker), neomycin (750 μg/ml) and puromycin (5 μg/ml). Neomycin and puromycin resistant colonies were subcloned and assayed for activation against a range of calcium concentration. Clone 8-5-5 was used to assess the effects of compounds on [Ca^2+]i. This stably transfected cell line was termed ET8-5-5.
For measurements of [Ca^2+]i, the cells were recovered from tissue culture flasks by brief treatment with Trypsin-EDTA (Invitrogen; containing 0.53 mM EDTA.4Na in HBSS) and then seeded in culture-treated 96-well plates (Greiner) at 50 k cells per well in the growth media (same as above, except neomycin 400 μg/ml). Cells were grown in 37° C. TC incubator for 24 h. The culture medium was then removed and replaced with F12 medium, 1% Pen-Strep for an overnight foetal bovine serum starvation in 37° C. TC incubator. Then the starvation medium was removed and replaced with a test buffer (20 mM HEPES pH 7.4, 125 mM NaCl, 5 mM KCl, 1 mM MgCl2, 5.5 mM Glucose, 2 g/l lysosyme and 0.3 mM CaCl2) supplemented with a range of test compound concentrations crossed against a super-added range of CaCl2 concentrations. The cells were incubated with the test compounds for 5 h in 37° C. TC incubator. Then the test buffer was discarded, and cells were added with the substrate for Luciferase from SteadyLite Kit (Perkin-Elmer). The luminescence was recorded.

SMILES	EC50 [nM]
COc1ccc(S(=O)(=O)NCCN(CCC(c2ccccc2)c2ccccc2)C(=O)Nc2nc3ccccc3s2)cc1 [Example 172, N-{2-[3-Benzothiazol-2-yl-1-(3,3-diphenylpropyl)-ureido]-ethyl}-4-methoxybenzenesulfonamide]	100 to 1000
COC(=O)c1cccc(NC(=O)N(CCC(c2ccccc2)c2ccccc2)CC(=O)OC(C)(C)C)c1 [Example 63, 3-[3-tert-butoxycarbonylmethyl-3-(3,3-diphenyl-propyl)-ureido]-benzoic acid methyl ester]	100 to 1000
O=C(Nc1nc2ccccc2s1)N(CCNS(=O)(=O)c1ccc(C(F)(F)F)cc1)CCC(c1ccccc1)c1ccccc1 [Example 173, N-{2-[3-Benzothiazol-2-yl-1-(3,3-diphenylpropyl)-ureido]-ethyl}-4-trifluoromethyl-benzenesulfonamide]	100 to 1000
COC(=O)c1ccccc1S(=O)(=O)NCCN(CCC(c1ccccc1)c1ccccc1)C(=O)Nc1nc2ccccc2s1 [Example 171, 2-{2-[3-Benzothiazol-2-yl-1-(3,3-diphenyl-propyl)-ureido]-ethylsulfamoyl}-benzoic acid methyl ester]	100 to 1000

The next lines start with the values.

EC50 [nM]	SMILES
1000 to 10000	O=C(O)CCCN(CCC(c1ccccc1)c1ccccc1)C(=O)Nc1cccc(C(=O)O)c1 [Example 65, 3-[3-(3-carboxy-propyl)-3-(3,3-diphenyl-propyl)-ureido]-benzoic acid]
1000 to 10000	O=C(O)CN(CCC(c1ccccc1)c1ccccc1)C(=O)Nc1cccc(C(=O)O)c1 [Example 66, 3-[3-carboxymethyl-3-(3,3-diphenyl-propyl)-ureido]-benzoic acid]
< 100	CCOC(=O)CCCN(CCC(c1ccccc1)c1ccccc1)C(=O)Nc1cccc(C(=O)OC)c1 [Example 64, 3-[3-(3,3-diphenyl-propyl)-3-(3-ethoxycarbonyl-propyl)-ureido]-benzoic acid methyl ester]
